Data reported in US20040175568A1, “Fullerodendrimer-comprising film” (priority 2003, published 2004).

Assay: Oxidation and reduction potential of fullerodendrimer
Assay type: physicochemical

first oxidation potential: +1,120 mV
first reduction potential: −1,120 mV
Structure (SMILES): c12c3c4c5c1c1c6c7c2c2c8c3c3c9c4c4c%10c5c5c1c1c6c6c%11c7c2c2c7c8c3c3c8c9c4c4c9c%10c5c5c1c1c6c6c%11c2c2c7c3c3c8c4c4c9c5c1c1c6c2c3c41 [Example C60, C60]
